One data set concerns the target T1, S1P2 (Homo sapiens, UniProt O95136).
T1 construct: expressed in transfected cells; host or cells: CRE-bla CHOK1
As to the kind of experiment: Specificity over other S1P receptors: S1P2 CRE-bla CHOK1 reporter assay. The data set is classed as cell-based. To be noted: S1P2 CRE-bla CHOK1, without Forskolin; read-out: S1P2 agonist value (EC50). On the procedure: (§1) Cells were seeded into 384-well black wall/clear bottom plates at 10^4 cells/well/19.5 μl assay media (DMEM-phenol free, 0.5% charcoal/dextran stripped serum, 2 mM glutamine, 0.1 mM NEAA, 1 mM Na-Pyruvate, 25 mM Hepes) and incubated for 18 hrs at 37° C. in 5% CO2. Dose response curves (10-point) were generated in 10 mM Hepes, 0.1% Pluronic F127, in the presence of Forskolin. Cells were treated with 0.5 μl compound in the presence of 2 μM Forskolin for 4 hrs at 37° C. The FRET-based β-lactamase fluorescent substrate (LiveBLAzer™-FRET B/G Loading Kit CC4-AM; Invitrogen) was prepared according to manufacturer's directions, and incubated with cells for 2 hrs at room temperature. Plates were read at Ex:410/Em:458 and Ex:410/Em:522, and the response ratio determined. Data was analyzed by non-linear regression to determine the EC50 for inhibition of Forskolin induced cAMP.
(§2) To assess compound specificity on other S1P receptors the following cell lines were used: S1P2 CRE-bla CHOK1, S1P3-Gα15 NFAT-bla HEK293T (Invitrogen), S1P4-bla TANGO U2OS (Invitrogen), S1P5-bla TANGO U2OS (Invitrogen). The same assay set up for S1P1 was used but without Forskolin. S1P4 and S1P5 assays were performed in FreeStyle Expression medium (Invitrogen). S1P5 cells were incubated for 48 hrs in prior to treatment with compound.
On the technique in general: In a reporter assay the amount or activity of a reporter protein is the signal.

A further data set has as its target T2, S1P3 (Homo sapiens, UniProt Q99500).
T2 construct: host or cells: NFAT-bla HEK293T
As to the kind of experiment: Specificity over other S1P receptors: S1P3-Gα15 NFAT-bla HEK293T reporter assay. Type of data set: cell-based. Conditions: without Forskolin, read-out: S1P3 agonist value (EC50). On the procedure: as §1, §2

The next data set has as its target T3, S1P5 (Homo sapiens, UniProt Q9H228).
T3 construct: Tango fusion (own knowledge: protease cleavage site plus GAL4-VP16 transcription factor at the receptor's C-terminus); host or cells: U2OS (Tango -bla)
As to the kind of experiment: Specificity over other S1P receptors: S1P5-bla TANGO U2OS assay. Conditions: read-out: S1P5 agonist value (EC50). The data set is classed as cell-based. How it is done:
as §1, §2

The nature of data set [1]: Determination of absolute oral bioavailability in rats. Type of data set: in vivo, Sprague-Dawley rat. Conditions: non-fasted female Sprague-Dawley rats, oral solution 0.3 mg/kg (85), 2 mg/kg (49, 50), iv 0.3 mg/kg (49, 50), 0.8 mg/kg racemic 85/86. How it is done:
All pharmacokinetic studies were conducted in non-fasted female Sprague-Dawely rats (Simonsen Laboratories or Harlan Laboratories). Rats were housed in an ALAAC accredited facility and the research was approved by the facilities Institutional Animal Care and Use Committee (IACUC). The animals were acclimated to the laboratory for at least 48 h prior to initiation of experiments.
Compounds were formulated in 5% DMSO/5% Tween20 and 90% purified water (intravenous infusion) or 5% DMSO/5% Tween20 and 90% 0.1N HCL (oral gavage). The concentration of the dosing solutions was verified by HPLC-UV. For intravenous dosing, compounds were administered by an infusion pump into the jugular vein over one minute to manually restrained animals (n=4 rats/compound). The intravenous doses were 0.8 for a 1:1 mixture (racemic) of 85 and 86, and 0.3 and 0.3 mg/kg for compounds 49 and 50, respectively. Oral dosing was by gavage using a standard stainless steel gavage needle (n=2-4 rats/compound). The oral solution doses were 0.3, 2 and 2 mg/kg for compounds 85, 49 and 50, respectively. For both routes of administration, blood was collected at eight time-points after dosing with the final sample drawn 24 h post dose. Aliquots of the blood samples were transferred to polypropylene 96-well plate and frozen at −20° C. until analysis. […]
Concentrations in the rat pharmacokinetic samples were determined using a standardized HPLC-LC/MS/MS method relative to the eight point standard curve. […] Collision energies used to generate daughter ions ranged between 29 and 39 V. Peak area ratios obtained from MRM of the mass transitions specific for each compound were used for quantification. The limit of quantification of the method was typically 5 nM. Data were collected and analyzed using Analyst software version 1.4.2.
Blood concentration versus time data were analyzed using non-compartmental methods (WinNonlin version 5.2; model 200 for oral dosing and model 202 for intravenous infusion). Absolute oral bioavailability (%) was calculated using the following expression: (Oral AUC×IV Dose)/(IV AUC×Oral Dose)×100. […]

Where a name gives a salt, the structure may show the parent alone. Where only a bound is given, the exact number is not on record here.

Results on five compounds are retold here after patent US9388147B2 (Receptos, Inc., priority 2009, dated 2016).

T2 sequence (Q99500 whole entry): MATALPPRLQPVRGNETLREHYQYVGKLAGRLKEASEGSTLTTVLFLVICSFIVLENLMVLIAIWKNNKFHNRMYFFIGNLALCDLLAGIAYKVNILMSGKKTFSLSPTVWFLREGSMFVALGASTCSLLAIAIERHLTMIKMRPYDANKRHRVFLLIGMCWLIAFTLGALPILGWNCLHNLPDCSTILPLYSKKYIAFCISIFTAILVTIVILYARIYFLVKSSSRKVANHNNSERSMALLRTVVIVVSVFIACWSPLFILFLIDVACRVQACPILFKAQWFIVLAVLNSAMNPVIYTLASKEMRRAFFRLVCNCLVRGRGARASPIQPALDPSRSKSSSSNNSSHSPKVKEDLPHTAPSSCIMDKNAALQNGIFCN
T3 sequence (Q9H228 whole entry, the tested form may be a part): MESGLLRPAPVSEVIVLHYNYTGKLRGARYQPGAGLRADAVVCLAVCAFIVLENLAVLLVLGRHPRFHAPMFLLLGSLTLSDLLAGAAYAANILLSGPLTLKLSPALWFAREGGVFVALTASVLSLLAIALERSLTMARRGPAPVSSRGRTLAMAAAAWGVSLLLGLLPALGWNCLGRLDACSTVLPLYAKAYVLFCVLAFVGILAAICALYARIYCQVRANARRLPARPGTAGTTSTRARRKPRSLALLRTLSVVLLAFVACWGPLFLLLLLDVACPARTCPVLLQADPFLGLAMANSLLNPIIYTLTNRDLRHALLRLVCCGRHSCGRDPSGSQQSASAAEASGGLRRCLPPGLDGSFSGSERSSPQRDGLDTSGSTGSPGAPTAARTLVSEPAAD
T1 sequence (O95136 whole entry, species assumed): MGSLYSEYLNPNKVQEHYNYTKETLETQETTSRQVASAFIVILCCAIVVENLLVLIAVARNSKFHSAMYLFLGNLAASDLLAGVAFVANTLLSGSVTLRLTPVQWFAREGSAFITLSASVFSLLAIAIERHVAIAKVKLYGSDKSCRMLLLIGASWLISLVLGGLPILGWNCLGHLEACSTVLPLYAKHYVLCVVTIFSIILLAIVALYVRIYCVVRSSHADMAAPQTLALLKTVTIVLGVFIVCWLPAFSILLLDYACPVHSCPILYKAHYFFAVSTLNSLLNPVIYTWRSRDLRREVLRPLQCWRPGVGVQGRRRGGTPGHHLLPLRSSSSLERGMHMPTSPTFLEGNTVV

In the case of `CC(C)Oc1ccc(-c2nc(-c3cccc4c3CC[C@H]4N)no2)cc1C#N` [Compound 49, (R)-5-(3-(1-amino-2,3-dihydro-1H-inden-4-yl)-1,2,4-oxadiazol-5-yl)-2-isopropoxy-benzonitrile hydrochloride], the EC50 (as a rule, the concentration giving half of the maximal effect) on S1P2 is 1.08 µM; at S1P3 it was 8.95 µM; at S1P5, 0.0201 µM. In data set [1] (rat, whole blood), the bioavailability (in general, dose-corrected exposure relative to a reference, in per cent) came to 93%.
As to `CC(C)Oc1ccc(-c2nc(-c3cccc4c3CC[C@@H]4N)no2)cc1C#N` [Compound 50, (S)-5-(3-(1-amino-2,3-dihydro-1H-inden-4-yl)-1,2,4-oxadiazol-5-yl)-2-isopropoxy-benzonitrile], the EC50 at S1P2 was determined as 7.72 µM; at S1P3, 8.91 µM; on S1P5 it was 0.0445 µM. Moreover, the “Rat - Oral bioavailability Solution” value in data set [1] was found to be 91%.
`CC(C)Oc1ccc(-c2nc(-c3cccc4c3CC[C@H]4NCCO)no2)cc1C#N` [Compound 85, (R)-5-(3-(1-(2-hydroxyethylamino)-2,3-dihydro-1H-inden-4-yl)-1,2,4-oxadiazol-5-yl)-2-isopropoxybenzonitrile]: the EC50 on S1P2 worked out at 5.69 µM; at S1P3, 4.5 µM; on S1P5, 0.0151 µM. For the same compound, in data set [1], the “Rat - Oral bioavailability Solution” value turned out to be 69%.
As for `CC(C)Oc1ccc(-c2nc(-c3cccc4c3CC[C@H]4NCC(=O)N(C)C)no2)cc1C#N` [Compound 90, (R)-2-(4-(5-(3-cyano-4-isopropoxyphenyl)-1,2,4-oxadiazol-3-yl)-2,3-dihydro-1H-inden-1-ylamino)-N,N-dimethylacetamide hydrochloride], the EC50 was 6.66 µM on S1P2, 8.82 µM on S1P3 and 0.0129 µM at S1P5.
With `CC(C)Oc1ccc(-c2nc(-c3cccc4c3CC[C@@H]4NCC(=O)N(C)C)no2)cc1C#N` [Compound 91, (S)-2-(4-(5-(3-cyano-4-isopropoxyphenyl)-1,2,4-oxadiazol-3-yl)-2,3-dihydro-1H-inden-1-ylamino)-N,N-dimethylacetamide], the EC50 at S1P2 is greater than 10 µM; at S1P3, greater than 10 µM; at S1P5, 0.0152 µM.
